Measured values as given in US20250243245A1 (priority 2022, published 2025).
Where a SMILES comes first, the peptide text is derived from it.

tested on: E. coli strain BL21; details: BL21, 24 h

SMILES	MIC
CC(C)C[C@H](NC(=O)[C@H](CCC(N)=O)NC(=O)[C@H](CCC(=O)O)NC(=O)[C@H](CO)NC(=O)[C@H](CC(C)C)NC(=O)[C@H](CCCNC(=N)N)NC(=O)[C@@H]1CCCN1C(=O)[C@@H](N)CCCCN)C(=O)N[C@@H](CCC(N)=O)C(=O)N[C@@H](CCC(=O)O)C(=O)N[C@@H](CC(C)C)C(=O)N[C@H](C(=O)N[C@@H](CCCNC(=N)N)C(=O)N[C@@H](CCCNC(=N)N)C(=O)N[C@@H](CC(C)C)C(=O)N[C@@H](CC(C)C)C(=O)N[C@@H](CC(=O)O)C(=O)N[C@@H](CO)C(=O)N1CCC[C@H]1C(=O)N[C@@H](CC(C)C)C(=O)N[C@@H](CCC(=O)O)C(=O)N[C@@H](CCCNC(=N)N)C(=O)N[C@@H](CCCNC(=N)N)C(=O)N[C@@H](Cc1c[nH]c2ccccc12)C(=O)N[C@@H](Cc1c[nH]c2ccccc12)C(=O)N[C@@H](CCC(=O)O)C(=O)N[C@@H](Cc1c[nH]c2ccccc12)C(=O)N[C@@H](Cc1c[nH]c2ccccc12)C(=O)N[C@@H](CCCNC(=N)N)C(=O)N[C@@H](CCCNC(=N)N)C(=O)O)[C@@H](C)O [UGK-33] (H-KPRLSEQLQELTRRLLDSPLERRWWEWWRR-OH; N-terminus and C-terminus assumed)	>20 mM
CC[C@H](C)[C@H](NC(=O)[C@H](CCCNC(=N)N)NC(=O)[C@H](CCCNC(=N)N)NC(=O)[C@H](CCC(N)=O)NC(=O)[C@H](Cc1c[nH]c2ccccc12)NC(=O)[C@H](Cc1ccccc1)NC(=O)CNC(=O)[C@@H]1CCCN1C(=O)[C@H](CO)NC(=O)CNC(=O)[C@H](CCC(=O)O)NC(=O)[C@H](CC(C)C)NC(=O)[C@H](CO)NC(=O)[C@H](CCCCN)NC(=O)[C@H](CC(C)C)NC(=O)[C@@H](NC(=O)[C@H](CCC(=O)O)NC(=O)[C@H](CC(C)C)NC(=O)[C@H](CC(C)C)NC(=O)[C@H](CCCCN)NC(=O)[C@H](CCC(=O)O)NC(=O)[C@@H]1CCCN1C(=O)[C@H](CC(C)C)NC(=O)[C@H](CCCCN)NC(=O)[C@@H](N)CCCCN)[C@@H](C)CC)C(=O)N[C@@H](CCCNC(=N)N)C(=O)N[C@@H](CCCNC(=N)N)C(=O)N[C@@H](Cc1c[nH]c2ccccc12)C(=O)N[C@@H](CCCNC(=N)N)C(=O)N[C@@H](CCCNC(=N)N)C(=O)O [UGK-25] (H-KKLPEKLLEILKSLEGSPGFWQRRIRRWRR-OH; N-terminus and C-terminus assumed)	2.5 to 5 mM
CC[C@H](C)[C@H](NC(=O)[C@H](CCCCN)NC(=O)[C@H](CC(C)C)NC(=O)[C@@H](NC(=O)[C@H](CCCCN)NC(=O)[C@H](CCCNC(=N)N)NC(=O)[C@H](C)NC(=O)[C@@H]1CCCN1C(=O)[C@H](CCCCN)NC(=O)[C@@H](N)CCCNC(=N)N)C(C)C)C(=O)N[C@@H](CC(C)C)C(=O)NCC(=O)N[C@@H](CCCNC(=N)N)C(=O)NCC(=O)N[C@@H](CO)C(=O)N[C@@H](CCC(=O)O)C(=O)N[C@@H](Cc1ccccc1)C(=O)N[C@@H](Cc1c[nH]c2ccccc12)C(=O)N[C@@H](CCC(N)=O)C(=O)N[C@@H](CCCCN)C(=O)N[C@@H](CCCNC(=N)N)C(=O)N[C@H](C(=O)N[C@@H](CCCNC(=N)N)C(=O)N[C@@H](CCCNC(=N)N)C(=O)N[C@@H](Cc1c[nH]c2ccccc12)C(=O)N[C@@H](CCCNC(=N)N)C(=O)N[C@@H](CCCNC(=N)N)C(=O)O)C(C)C [Peptide 27P-3] (H-RKPARKVLKILGRGSEFWQKRVRRWRR-OH; N-terminus and C-terminus assumed)	10 to 20 mM
CC(C)C[C@H](NC(=O)[C@H](Cc1c[nH]cn1)NC(=O)[C@H](C)NC(=O)[C@H](CCCCN)NC(=O)[C@H](CO)NC(=O)CNC(=O)[C@H](CCC(=O)O)NC(=O)[C@H](CC(C)C)NC(=O)[C@H](CO)NC(=O)[C@H](CCCCN)NC(=O)[C@H](CC(C)C)NC(=O)[C@H](CCCCN)NC(=O)[C@H](CCC(N)=O)NC(=O)[C@H](CC(C)C)NC(=O)[C@H](CC(C)C)NC(=O)[C@H](CCC(=O)O)NC(=O)[C@H](CCC(=O)O)NC(=O)[C@@H]1CCCN1C(=O)[C@H](CCCNC(=N)N)NC(=O)[C@@H](N)CCCCN)C(=O)N[C@@H](CCC(N)=O)C(=O)N[C@@H](Cc1c[nH]cn1)C(=O)N[C@@H](Cc1c[nH]cn1)C(=O)N[C@@H](CC(=O)O)C(=O)N[C@@H](Cc1c[nH]c2ccccc12)C(=O)N[C@H](C(=O)N[C@@H](CO)C(=O)N[C@@H](CCCCN)C(=O)O)[C@@H](C)O [UGK-41] (H-KRPEELLQKLKSLEGSKAHLQHHDWTSK-OH; N-terminus and C-terminus assumed)	>20 mM
CC[C@H](C)[C@H](N)C(=O)N[C@@H](CCC(=O)O)C(=O)N[C@@H](CCCNC(=N)N)C(=O)N[C@@H](CO)C(=O)N[C@H](C(=O)N[C@@H](CC(N)=O)C(=O)N[C@@H](CC(C)C)C(=O)N[C@@H](CC(=O)O)C(=O)N[C@@H](Cc1c[nH]c2ccccc12)C(=O)N[C@@H](Cc1ccc(O)cc1)C(=O)N[C@@H](CCCCN)C(=O)NCC(=O)N1CCC[C@H]1C(=O)N[C@H](C(=O)N[C@@H](CC(C)C)C(=O)N[C@@H](CC(C)C)C(=O)O)[C@@H](C)O)[C@@H](C)O [Peptide 16P-1, reference compound] (H-IERSTNLDWYKGPTLL-OH; N-terminus and C-terminus assumed)	>20 mM
CC[C@H](C)[C@H](NC(=O)[C@H](CCCNC(=N)N)NC(=O)[C@H](CCCNC(=N)N)NC(=O)[C@H](CCC(N)=O)NC(=O)[C@H](Cc1c[nH]c2ccccc12)NC(=O)[C@H](Cc1ccccc1)NC(=O)CNC(=O)[C@@H]1CCCN1C(=O)[C@H](CO)NC(=O)CNC(=O)[C@H](Cc1ccc(O)cc1)NC(=O)CNC(=O)[C@H](CO)NC(=O)CNC(=O)[C@H](CCCNC(=N)N)NC(=O)[C@H](Cc1c[nH]c2ccccc12)NC(=O)[C@H](Cc1c[nH]c2ccccc12)NC(=O)[C@H](CCCNC(=N)N)NC(=O)[C@H](Cc1c[nH]c2ccccc12)NC(=O)[C@H](Cc1c[nH]c2ccccc12)NC(=O)[C@H](CCCNC(=N)N)NC(=O)[C@@H](N)CCCNC(=N)N)C(=O)N[C@@H](CCCNC(=N)N)C(=O)N[C@@H](CCCNC(=N)N)C(=O)N[C@@H](Cc1c[nH]c2ccccc12)C(=O)N[C@@H](CCCNC(=N)N)C(=O)N[C@@H](CCCNC(=N)N)C(=O)O [Peptide 27P-1] (H-RRWWRWWRGSGYGSPGFWQRRIRRWRR-OH; N-terminus and C-terminus assumed)	>20 mM
CC(C)C[C@H](NC(=O)[C@H](CO)NC(=O)[C@H](CCCCN)NC(=O)[C@H](CC(C)C)NC(=O)[C@H](CCCCN)NC(=O)[C@H](CCC(=O)O)NC(=O)[C@H](CC(C)C)NC(=O)[C@H](CC(C)C)NC(=O)[C@H](CCC(=O)O)NC(=O)[C@H](CCC(=O)O)NC(=O)[C@H](CC(C)C)NC(=O)[C@H](CCCNC(=N)N)NC(=O)[C@H](CCCCN)NC(=O)[C@@H]1CCCN1C(=O)[C@@H](N)CCC(N)=O)C(=O)N[C@@H](CCC(=O)O)C(=O)NCC(=O)N[C@@H](CO)C(=O)N[C@@H](CCCCN)C(=O)N[C@@H](C)C(=O)N[C@@H](Cc1c[nH]cn1)C(=O)N[C@@H](CCC(=O)O)C(=O)N[C@@H](CCCCN)C(=O)N[C@@H](CC(C)C)C(=O)N[C@@H](Cc1c[nH]cn1)C(=O)N[C@@H](CC(=O)O)C(=O)N[C@@H](Cc1c[nH]c2ccccc12)C(=O)N[C@H](C(=O)N[C@@H](CCCNC(=N)N)C(=O)N[C@@H](CCCCN)C(=O)O)[C@@H](C)O [UGK-49] (H-QPKRLEELLEKLKSLEGSKAHEKLHDWTRK-OH; N-terminus and C-terminus assumed)	>20 mM
N=C(N)NCCC[C@H](NC(=O)[C@H](Cc1c[nH]c2ccccc12)NC(=O)[C@H](Cc1c[nH]c2ccccc12)NC(=O)[C@H](CCCNC(=N)N)NC(=O)[C@H](Cc1c[nH]c2ccccc12)NC(=O)[C@H](Cc1c[nH]c2ccccc12)NC(=O)[C@H](CCCNC(=N)N)NC(=O)[C@@H](N)CCCNC(=N)N)C(=O)O [Peptide 8P-1, reference compound] (H-RRWWRWWR-OH; N-terminus and C-terminus assumed)	>20 mM
CSCC[C@H](NC(=O)[C@H](Cc1c[nH]c2ccccc12)NC(=O)[C@H](CCC(N)=O)NC(=O)[C@H](Cc1c[nH]c2ccccc12)NC(=O)[C@H](Cc1ccccc1)NC(=O)[C@H](CCCNC(=N)N)NC(=O)[C@H](CCCNC(=N)N)NC(=O)[C@H](CCC(=O)O)NC(=O)[C@H](CC(C)C)NC(=O)[C@@H]1CCCN1C(=O)[C@H](CO)NC(=O)[C@H](CC(=O)O)NC(=O)[C@H](CC(C)C)NC(=O)[C@H](CC(C)C)NC(=O)[C@H](CCCNC(=N)N)NC(=O)[C@H](CCCNC(=N)N)NC(=O)[C@@H](NC(=O)[C@H](CC(C)C)NC(=O)[C@H](CCC(=O)O)NC(=O)[C@H](CCC(N)=O)NC(=O)[C@H](CC(C)C)NC(=O)[C@H](CCC(N)=O)NC(=O)[C@H](CCC(=O)O)NC(=O)[C@H](CO)NC(=O)CNC(=O)[C@H](CCCNC(=N)N)NC(=O)[C@@H]1CCCN1C(=O)[C@@H](N)CCCCN)[C@@H](C)O)C(=O)N[C@@H](CCCNC(=N)N)C(=O)N[C@@H](CCCNC(=N)N)C(=O)O [UGK-37, KPRGSEQLQELTRRLLDSPLERRFWOWMRR] (H-KPRGSEQLQELTRRLLDSPLERRFWQWMRR-OH; N-terminus and C-terminus assumed)	>20 mM
CSCC[C@H](NC(=O)[C@H](Cc1c[nH]c2ccccc12)NC(=O)[C@H](CCC(=O)O)NC(=O)[C@H](Cc1c[nH]c2ccccc12)NC(=O)[C@H](Cc1c[nH]c2ccccc12)NC(=O)[C@H](CCCNC(=N)N)NC(=O)[C@H](CCCNC(=N)N)NC(=O)[C@H](CCC(=O)O)NC(=O)[C@H](CC(C)C)NC(=O)[C@@H]1CCCN1C(=O)[C@H](CO)NC(=O)[C@H](CC(=O)O)NC(=O)[C@H](CC(C)C)NC(=O)[C@H](CC(C)C)NC(=O)[C@H](CCCNC(=N)N)NC(=O)[C@H](CCCNC(=N)N)NC(=O)[C@@H](NC(=O)[C@H](CC(C)C)NC(=O)[C@H](CCC(=O)O)NC(=O)[C@H](CCC(N)=O)NC(=O)[C@H](CC(C)C)NC(=O)[C@H](CCC(N)=O)NC(=O)[C@H](CCC(=O)O)NC(=O)[C@H](CO)NC(=O)CNC(=O)[C@H](CCCNC(=N)N)NC(=O)[C@@H]1CCCN1C(=O)[C@@H](N)CCCCN)[C@@H](C)O)C(=O)N[C@@H](CCCNC(=N)N)C(=O)N[C@@H](CCCNC(=N)N)C(=O)O [UGK-29] (H-KPRGSEQLQELTRRLLDSPLERRWWEWMRR-OH; N-terminus and C-terminus assumed)	>20 mM
